Article PMC11009625, “Antibiotic class with potent in vivo activity targeting lipopolysaccharide synthesis in Gram-negative bacteria” (Proceedings of the National Academy of Sciences of the …, 2024)
In brackets after ≈: the same amount, converted by molar mass.

Columns and labels:
[1] = tested on: efflux-defective E. coli; assay: MIC in phenotypic screen, tolC-inactivated E. coli; type: cell-based; conditions: Escherichia coli, read-out: MIC against efflux-defective E. coli
Text: In a search for new drug targets and starting points for antibiotic discovery, we initiated a series of phenotypic screens, based on publicly available chemical libraries and information gathered from the literature, focusing on compounds for which there was some evidence of Gram-negative antibacterial activity. In our initial screens, we evaluated activity against tolC-inactivated mutants of E. coli. The TolC protein is the outer membrane channel protein that is required for activity of several of the most important efflux pumps in E. coli, and inactivation of TolC essentially abolishes efflux pump activity ([27]). […] We successfully isolated resistant mutants against this compound. […] We resynthesized the AZ1 compound and confirmed the involvement of LpxH by WGS of selected resistant clones (SI Appendix, Table S1) ([24]–[26]). Both our own, and previously published mutations, map to the lipid X (enzymatic reaction product) binding site of LpxH (SI Appendix, Table S1 and Fig. S1A) ([23]). […]
Minimum inhibitory concentration (MIC) values were determined according to the Clinical Laboratory Standards Institute guidelines. Frequency of resistance was determined by plating ~5 × 10^8 bacterial cells on agar-solidified media plates containing test compound at concentrations corresponding to four times the measured solid-media MIC of the strains. […]

[2] = tested on: K. pneumoniae (EN124); assay: MIC of K. pneumoniae strain used in the in vivo efficacy studies; type: cell-based; conditions: Klebsiella pneumoniae
Experimental: (§1) Minimum inhibitory concentration (MIC) values were determined according to the Clinical Laboratory Standards Institute guidelines. Frequency of resistance was determined by plating ~5 × 10^8 bacterial cells on agar-solidified media plates containing test compound at concentrations corresponding to four times the measured solid-media MIC of the strains. Colonies were counted after 24 h, restreaked onto media containing the same concentration of compound, and the MIC remeasured against the assayed compound. Genomic DNA from isolated clones was sequenced by paired-end sequencing on an Illumina MiSeq device. Complete experimental details available in SI Appendix.
(§2) Lantmännen) and water. […]
(§3) Safety testing in mice. […] Mice were extensively observed and toxicity signs were scored after 0-2, 5, […]
(§4) Plasma sample analysis by UPLC/MS/MS. Concentrations of EBL-3599 and EBL-3647 in mouse blood plasma were measured by liquid chromatography tandem mass spectrometry (LC/MS/MS) in positive electrospray ionization (ESI+) in multi reaction monitoring (MRM) mode. […]
(§5) A sample volume of 20 μL was transferred into a plastic tube and mixed with 300μL acetonitrile/methanol mixture (3:1, v/v) to precipitate proteins. […] Bioanalysis of samples from each mouse were measured in duplicate and the results averaged. […]

[3] = tested on: E. coli (EN122); assay: MIC of E. coli strain used in the in vivo efficacy studies; type: cell-based; conditions: Escherichia coli
Experimental: as §1, §2, §3, §4, §5

[4] = Safety testing in mice; type: in vivo; conditions: intravenous 50 mg/kg and subcutaneous 100 mg/kg
Experimental: PK and safety studies were done the Latvian Institute for Organic Synthesis (Riga, Latvia) and in vivo efficacy studies were done at Statens Serum Institut (Copenhagen, Denmark). Assays were done in accordance with the relevant permits at the respective sites (SI Appendix). For PK studies, plasma samples were taken from mice dosed subcutaneously and the samples were analyzed by UPLC/MS/MS. For in vivo efficacy studies, neutropenic mice were infected intraperitoneally with 10^6 bacteria and treated with subcutaneously with test compounds 1 h after infection. The mice were euthanized 4 h after treatment and serially diluted samples of blood and peritoneal fluid were plated onto blood agar plates. Complete experimental details available in SI Appendix.
as §2, §3, §4, §5

[5] = tested on: efflux-defective E. coli; assay: Frequency of resistance, efflux-defective E. coli; type: cell-based; conditions: not told
Experimental: as §1, with “Appendix. […]” for “Appendix.”
Minimum inhibitory concentration (MIC) determination. […] Appropriate inoculation suspension density was assessed using a Sensititre Nephelometer with a Sensititre 0.5 […]
Frequency of Resistance. Frequency of resistance was assessed by spread plating between […] cfu of a freshly-grown culture of the strain of interest on plates containing a concentration of compound corresponding to 4 times the MIC of the strain (as determined by agar-dilution MIC). […] The frequency of resistance was determined by dividing the number of colonies obtained on the selective plates after 24 hours of growth by the calculated total population plated. […]

SMILES: CN(c1ccccc1C(=O)Nc1ccc(S(=O)(=O)N2CCCCC2)cc1)S(C)(=O)=O [JEDI-852]
- MIC [1]: 4 to 8 µg/mL (≈ 8.86 to 17.7 µM)

SMILES: Cc1cc(C#N)nc(N2CCN(S(=O)(=O)c3ccc(NC(=O)c4cc(CN5CC(CN)C5)ccc4N(C)S(C)(=O)=O)cc3)CC2)n1 [EBL-3647]
- MIC [2]: 4 µg/mL
- MIC [3]: 4 µg/mL
- Tolerability / adverse reactions in mice [4]: well tolerated

SMILES: Cc1cc(C#N)nc(N2CCN(S(=O)(=O)c3ccc(NC(=O)c4cc(CNCCCN)ccc4N(C)S(C)(=O)=O)cc3)CC2)n1.Cl.Cl [EBL-3599]
- Tolerability / adverse reactions in mice [4]: well tolerated

SMILES: CN(c1ccccc1C(=O)Nc1ccc(S(=O)(=O)N2CCN(c3cccc(C(F)(F)F)c3)CC2)cc1)S(C)(=O)=O [JEDI-1444]
- Frequency of resistance in efflux-defective E. coli [5]: low frequency of resistance
